Measured values taken from ChEMBL document CHEMBL4483862, “Open-source discovery of chemical leads for next-generation chemoprotective antimalarials” (2018).

Tested on: Plasmodium berghei
Experiment: Luciferase/luciferin-expressing antifolate-resistant parasites were used to infect a culture of HepG2 cells that were pre-incubated with compounds. Infected hepatocytes emit light due to the luciferase reaction. Assay results are presented as the percent inhibition of light emission compared to control. […]
Type: functional
Details: sporozoite; for IC90: read-out: LUCIFERASE INFECTION ASSAY - IC90

| Structure (SMILES) | IC90 | other results |
| --- | --- | --- |
| CC(C)CC(N)c1csc(NC(=O)Nc2ccccc2C(C)(C)C)n1 (stereo not given) | 3.05 µM | IC50 (PBLUC_HILL_SLOPE 4.98, PBLUC_R_SQUARED 0.541, read-out: LUCIFERASE INFECTION ASSAY - IC50): 1.96 µM |
| Brc1ccc(OCc2ccccc2)c(CNCc2ccccn2)c1 | 6.94 µM | IC50 (PBLUC_HILL_SLOPE 4.81, PBLUC_R_SQUARED 0.436, read-out: LUCIFERASE INFECTION ASSAY - IC50): 4.39 µM |
| CCN(CC)CCn1c(NC(=O)c2cc3c(s2)CCCC3)nc2ccccc21 | > 10 µM | IC50 (PBLUC_HILL_SLOPE 4.87, PBLUC_R_SQUARED 0.309, read-out: LUCIFERASE INFECTION ASSAY - IC50): 6.91 µM |
| Cc1c(N/N=C(/C(=O)Nc2ccccc2)C(=O)c2ccccc2)c(=O)n(-c2ccccc2)n1C | > 10 µM | IC50 (PBLUC_HILL_SLOPE 4.97, PBLUC_R_SQUARED 0.638, read-out: LUCIFERASE INFECTION ASSAY - IC50): 8.09 µM |
| CC(C)c1ccccc1NC(=O)Nc1nc(C(N)Cc2ccc(Cl)cc2)cs1 (stereo not given) | > 7.95 µM | IC50 (PBLUC_HILL_SLOPE 4.88, PBLUC_R_SQUARED 0.323, read-out: LUCIFERASE INFECTION ASSAY - IC50): 5.13 µM |
| NC(COCc1ccccc1)c1csc(NC(=O)Nc2ccccc2-c2ccccc2)n1 (stereo not given) | 5.31 µM | IC50 (PBLUC_HILL_SLOPE 5.09, PBLUC_R_SQUARED 0.778, read-out: LUCIFERASE INFECTION ASSAY - IC50): 3.45 µM |
| Cc1nn(-c2ccc(C(=O)Nc3nc(CN4CCCC4)cs3)cc2)c(C)c1Cl | 7.87 µM | IC50 (PBLUC_HILL_SLOPE 4.86, PBLUC_R_SQUARED 0.713, read-out: LUCIFERASE INFECTION ASSAY - IC50): 5.01 µM |
| Cc1cccc(-c2cn3c(-c4cccc(O)c4)cnc3cn2)c1C | > 10.5 µM | IC50 (PBLUC_HILL_SLOPE 4.97, PBLUC_R_SQUARED 0.533, read-out: LUCIFERASE INFECTION ASSAY - IC50): 8.4 µM |
| CC(C)OC(=O)c1c(NC(=O)CSc2nnc(N)[nH]2)sc2c1CCCC2 | > 10 µM | IC50 (PBLUC_HILL_SLOPE 4.93, PBLUC_R_SQUARED 0.291, read-out: LUCIFERASE INFECTION ASSAY - IC50): 7.71 µM |
| CN1CCN(c2ccc(-c3cn4c(-c5cccc(O)c5)cnc4cn3)cn2)CC1 | > 8.54 µM | IC50 (PBLUC_HILL_SLOPE 4.85, PBLUC_R_SQUARED 0.265, read-out: LUCIFERASE INFECTION ASSAY - IC50): 7.18 µM |
| COc1ccccc1C(=O)NCC#Cc1cccc(C(F)(F)F)c1 | 8.91 µM | IC50 (PBLUC_HILL_SLOPE 4.8, PBLUC_R_SQUARED 0.508, read-out: LUCIFERASE INFECTION ASSAY - IC50): 5.64 µM |
| COc1cc(OC)cc(-c2cn3c(-c4ccc(CO)cc4)cnc3cn2)c1 | 8.34 µM | IC50 (PBLUC_HILL_SLOPE 5.1, PBLUC_R_SQUARED 0.643, read-out: LUCIFERASE INFECTION ASSAY - IC50): 5.42 µM |
| O=C1C(=C(O)c2ccc(OC(F)F)cc2)Sc2ccccc21 | > 10 µM | IC50 (PBLUC_HILL_SLOPE 4.86, PBLUC_R_SQUARED 0.465, read-out: LUCIFERASE INFECTION ASSAY - IC50): 9.12 µM |
| CN(C)C(=O)c1ccc(-c2cc3c(Nc4cccc(C(F)(F)F)c4)nccc3n2C)cc1 | 6.54 µM | IC50 (PBLUC_HILL_SLOPE 4.75, PBLUC_R_SQUARED 0.5, read-out: LUCIFERASE INFECTION ASSAY - IC50): 4.12 µM |
| CCN(CC)S(=O)(=O)c1cc(C)c(C)c(NC(=O)c2cc(C3CC3)nc3onc(C)c23)c1 | 9.64 µM | IC50 (PBLUC_HILL_SLOPE 5.13, PBLUC_R_SQUARED 0.485, read-out: LUCIFERASE INFECTION ASSAY - IC50): 6.28 µM |
| Cc1c(C)c(C)c(S(=O)(=O)N2CCN(C(C)C(=O)NC3CC3)CC2)c(C)c1C (stereo not given) | 9.56 µM | IC50 (PBLUC_HILL_SLOPE 4.98, PBLUC_R_SQUARED 0.411, read-out: LUCIFERASE INFECTION ASSAY - IC50): 6.15 µM |
| Cn1nc(C(=O)N2CCc3ccccc3C2)c2c1CCC(NCCc1nc(-c3ccccc3)cs1)C2 (stereo not given) | > 6.63 µM | IC50 (PBLUC_HILL_SLOPE 5.11, PBLUC_R_SQUARED 0.298, read-out: LUCIFERASE INFECTION ASSAY - IC50): 5.56 µM |
| CC(C)(CNC(=O)Nc1ccccc1)SCc1ccc(Cl)cc1 | > 9.46 µM | IC50 (PBLUC_HILL_SLOPE 4.79, PBLUC_R_SQUARED 0.408, read-out: LUCIFERASE INFECTION ASSAY - IC50): 6.73 µM |
| CCC1CCc2sc(C(=O)NCCc3ccccn3)cc2C1 (stereo not given) | > 10 µM | IC50 (PBLUC_HILL_SLOPE 5.05, PBLUC_R_SQUARED 0.237, read-out: LUCIFERASE INFECTION ASSAY - IC50): 7.77 µM |
| O=C(c1cnc(Nc2cccc(C(F)(F)F)c2)[nH]1)c1ccccc1O | 7.03 µM | IC50 (PBLUC_HILL_SLOPE 5.05, PBLUC_R_SQUARED 0.685, read-out: LUCIFERASE INFECTION ASSAY - IC50): 4.55 µM |

| Structure (SMILES) | IC90 | other results |
| --- | --- | --- |
| Cc1cc(C(=O)NCC#Cc2cccc(C(F)(F)F)c2)on1 | 8.21 µM | IC50 (PBLUC_HILL_SLOPE 5.05, PBLUC_R_SQUARED 0.342, read-out: LUCIFERASE INFECTION ASSAY - IC50): 5.32 µM |
| CCN(CC)C(CNC(=O)c1ccc2c(c1)OCC(=O)N2)c1ccccc1Cl (stereo not given) | 8.02 µM | IC50 (PBLUC_HILL_SLOPE 4.94, PBLUC_R_SQUARED 0.519, read-out: LUCIFERASE INFECTION ASSAY - IC50): 5.14 µM |
| O=C1C(=O)N(CCN2CCOCC2)c2ccc(F)cc21 | > 11.9 µM | IC50 (PBLUC_HILL_SLOPE 4.75, PBLUC_R_SQUARED 0.191, read-out: LUCIFERASE INFECTION ASSAY - IC50): 10.9 µM |
| Cc1cc(C)n(-c2nc(-c3ccccc3)cc(N3CCOCC3)n2)n1 | 6.26 µM | IC50 (PBLUC_HILL_SLOPE 5.14, PBLUC_R_SQUARED 0.351, read-out: LUCIFERASE INFECTION ASSAY - IC50): 4.08 µM |
| CCNC(=O)c1nn(Cc2cccc(OC)c2)c2c1CN(CCC(C)c1ccc(C)o1)CC2 (stereo not given) | > 7.32 µM | IC50 (PBLUC_HILL_SLOPE 5.04, PBLUC_R_SQUARED 0.686, read-out: LUCIFERASE INFECTION ASSAY - IC50): 6.68 µM |
| Cc1cc(-n2c(C)cc(C(=O)COc3ccccc3C#N)c2C)no1 | > 10 µM | IC50 (PBLUC_HILL_SLOPE 4.77, PBLUC_R_SQUARED 0.224, read-out: LUCIFERASE INFECTION ASSAY - IC50): 7.56 µM |
| CCC(C)(C)C1CCc2c(sc(NC(=O)CN3CCOCC3)c2C#N)C1 (stereo not given) | 8.57 µM | IC50 (PBLUC_HILL_SLOPE 4.77, PBLUC_R_SQUARED 0.355, read-out: LUCIFERASE INFECTION ASSAY - IC50): 5.41 µM |
| Cn1ccnc1Sc1ncnc2sccc12 | 3.92 µM | IC50 (PBLUC_HILL_SLOPE 5.04, PBLUC_R_SQUARED 0.521, read-out: LUCIFERASE INFECTION ASSAY - IC50): 2.53 µM |
| Fc1ccc(Nc2ncnc3c2cnn3Cc2ccc(Cl)cc2)cc1 | 9.37 µM | IC50 (PBLUC_HILL_SLOPE 4.8, PBLUC_R_SQUARED 0.59, read-out: LUCIFERASE INFECTION ASSAY - IC50): 5.93 µM |
| CNC(=O)c1ccc(CN(CCOc2cccc(F)c2)C2CC2)cc1 | > 10 µM | IC50 (PBLUC_HILL_SLOPE 4.75, PBLUC_R_SQUARED 0.3, read-out: LUCIFERASE INFECTION ASSAY - IC50): 6.72 µM |
| O=C(NNC(=O)c1cc2c(s1)CCCCC2)c1ccccn1 | 8.35 µM | IC50 (PBLUC_HILL_SLOPE 4.79, PBLUC_R_SQUARED 0.138, read-out: LUCIFERASE INFECTION ASSAY - IC50): 5.28 µM |
| Cc1nn(-c2ccccc2)c(Cl)c1/C=N/OCC(=O)Nc1cccc(C(F)(F)F)c1 | 9.91 µM | IC50 (PBLUC_HILL_SLOPE 4.91, 2.77, PBLUC_R_SQUARED 0.190, 0.335, read-out: LUCIFERASE INFECTION ASSAY - IC50): 5.6 µM |
| Cn1ccnc1SCC(=O)Nc1ccc(C(=O)Nc2ncccc2O)cc1 | 5.1 µM | IC50 (PBLUC_HILL_SLOPE 5, PBLUC_R_SQUARED 0.401, read-out: LUCIFERASE INFECTION ASSAY - IC50): 3.28 µM |
| CS(=O)(=O)Nc1cccc(-c2cnc3sc(NCCOc4ccccc4)nn23)c1 | > 7.68 µM | IC50 (PBLUC_HILL_SLOPE 4.91, PBLUC_R_SQUARED 0.558, read-out: LUCIFERASE INFECTION ASSAY - IC50): 5.02 µM |
| CC1CCc2sc(-c3nnc(SCC(=O)Nc4sccc4C(N)=O)o3)cc2C1 (stereo not given) | 9.89 µM | IC50 (PBLUC_HILL_SLOPE 4.8, PBLUC_R_SQUARED 0.154, read-out: LUCIFERASE INFECTION ASSAY - IC50): 6.26 µM |
| CC(OC(=O)c1cc(-c2ccccc2)nc2c1cnn2Cc1ccccc1)C(=O)NC(C)(C)C (stereo not given) | 6.73 µM | IC50 (PBLUC_HILL_SLOPE 5.07, PBLUC_R_SQUARED 0.772, read-out: LUCIFERASE INFECTION ASSAY - IC50): 4.36 µM |
| CCNC(=O)c1nn(CC2CC2)c2c1CN(C(=O)c1cc(-c3ccccc3F)n[nH]1)CC2 | 4.07 µM | IC50 (PBLUC_HILL_SLOPE 5.13, PBLUC_R_SQUARED 0.551, read-out: LUCIFERASE INFECTION ASSAY - IC50): 2.65 µM |
| CCc1c(C)sc(NC(=O)c2c(-c3ccccc3)noc2C)c1C(=O)OC | > 8.58 µM | IC50 (PBLUC_HILL_SLOPE 4.81, PBLUC_R_SQUARED 0.194, read-out: LUCIFERASE INFECTION ASSAY - IC50): 5.61 µM |
| COc1cc(Nc2ccn3ncc(-c4ccc(OC(F)(F)F)cc4)c3n2)cc(OC)c1OC | 5.74 µM | IC50 (PBLUC_HILL_SLOPE 5.07, PBLUC_R_SQUARED 0.236, read-out: LUCIFERASE INFECTION ASSAY - IC50): 3.72 µM |
| Cc1cc(C(=O)COc2ccc(CC(=O)O)cc2)c(C)n1CCC(C)C | 7.13 µM | IC50 (PBLUC_HILL_SLOPE 4.94, 3.04, PBLUC_R_SQUARED 0.440, 0.373, read-out: LUCIFERASE INFECTION ASSAY - IC50): 5.4 µM |
